Test [1] has as its system SARS-CoV-2_S (D614G)-pseudotyped lentivirus entry into ACE2-overexpressing Capan2 cells. Type of test: cell-based.
Test [2] deals with SARS-CoV-2_S (D614G)-pseudotyped lentivirus entry into ACE2-overexpressing 293T cells. It counts as cell-based.

“Also recorded” adds a separate entry of the source. Counter-ions that a name gives are not always drawn.

Turning to `N=C(N)c1ccc2cc(OC(=O)c3ccc(N=C(N)N)cc3)ccc2c1` [Nafamostat mesylate, reference compound], the “inhibiting effect on entry of the pseudovirus (EGFP/mCherry signal ratio)” value (shortened to “inhibiting effect … (EGFP/mCherry signal ratio)”) in test [1] is “exhibited an inhibiting effect; also recorded: block the pseudoviruses from entering”; in test [2], “significant inhibiting effects”.
Take `COc1ccc2c3ccnc4ccc(=O)n(c2c1)c43` [TS-984, 9-Methoxycanthin-6-one]: the “inhibiting effect … (EGFP/mCherry signal ratio)” value in test [1] is “strongest and was dose-dependent; also recorded: greatly reduce the EGFP/mCherry signal ratio; also recorded: effectively block the entry of pseudovirus into Capan2 cells with ACE2 overexpression in a dose-dependent manner”; in test [2] it was “significant inhibiting effects; also recorded: greatly reduce the EGFP/mCherry signal ratio”.
With `O=C1c2ccccc2C(=O)c2ccccc21` [TS-1276, anthraquinone], the figures for the “inhibiting effect … (EGFP/mCherry signal ratio)” value in test [1] and in test [2] were “did not present any significant inhibiting effects” and “significant inhibiting effects”, respectively.
With `O=C(OC[C@H]1O[C@@H](OC(=O)c2cc(O)c(O)c(OC(=O)c3cc(O)c(O)c(O)c3)c2)[C@H](OC(=O)c2cc(O)c(O)c(OC(=O)c3cc(O)c(O)c(O)c3)c2)[C@@H](OC(=O)c2cc(O)c(O)c(OC(=O)c3cc(O)c(O)c(O)c3)c2)[C@@H]1OC(=O)c1cc(O)c(O)c(OC(=O)c2cc(O)c(O)c(O)c2)c1)c1cc(O)c(O)c(OC(=O)c2cc(O)c(O)c(O)c2)c1` [tannic acid, reference compound], the “inhibiting effect on entry of the pseudovirus” value in test [1] is “only a mild inhibiting effect; also recorded: did not observe any significant inhibiting effect”.
